How the values were obtained:
inhibitory DREADD = biological target: T1, inhibitory DREADD (Homo sapiens, UniProt P08173, A203G/Y113C); experiment: c-fos / mCherry overlap in ILA after familiar animal presentation, inhibitory DREADD; assay type: in vivo, CRH-Cre mice; details: CNO i.p. 30 min before familiar animal presentation; vs. saline
T1 construct: host or cells: ILA CRH+ neurons of CRH-Cre mice, Cre-dependent AAV2/8 transduction in vivo
T1 sequence (P08173 1-479 Y113C/A203G): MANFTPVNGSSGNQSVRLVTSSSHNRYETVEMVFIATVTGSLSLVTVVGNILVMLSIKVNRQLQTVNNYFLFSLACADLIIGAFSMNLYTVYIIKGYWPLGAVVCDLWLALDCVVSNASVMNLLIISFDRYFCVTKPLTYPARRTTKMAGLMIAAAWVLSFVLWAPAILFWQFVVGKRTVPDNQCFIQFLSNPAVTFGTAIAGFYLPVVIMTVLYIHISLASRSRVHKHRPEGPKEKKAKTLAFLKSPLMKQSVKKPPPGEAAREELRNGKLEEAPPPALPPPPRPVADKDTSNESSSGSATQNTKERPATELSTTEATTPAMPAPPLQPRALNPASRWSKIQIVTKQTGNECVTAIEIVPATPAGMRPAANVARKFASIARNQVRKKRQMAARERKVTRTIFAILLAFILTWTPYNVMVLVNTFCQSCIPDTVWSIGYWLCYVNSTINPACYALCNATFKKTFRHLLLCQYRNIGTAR
Protocol: (§1) Mice were anesthetized using isoflurane then perfused in the heart with 10 mL saline and their brains were quickly extracted and incubated in 4% PFA overnight. After 1 h washing in PBS, 60 µm slices were prepared using a Leica VT1000S vibratome (Leica Biosystems). Unless indicated otherwise, slices were permeabilized for 2h in PBS with 0.5% Triton-X100 (T9284, Sigma-Aldrich) in PBS before being incubated overnight at 4°C with primary antibodies diluted in PBS with 0.5% Triton-X in PBS. The slices were washed in PBS for 1 h then incubated overnight at 4°C with secondary antibodies from Thermo-Fisher Scientific at a concentration of 1:500 diluted in PBS with 0.1% Triton-X. Hoechst counterstain was applied (Hoechst 33342 at 1:1000 for 30 min in PBS at RT) prior to mounting the slice using fluoromount (Sigma-Aldrich). Images were acquired using inverted confocal microscopes (Ism 900, Zeiss and SPII, Leica) or an epifluorescent microscope (Thunder, Leica). For post-hoc immunocytochemistry after patch-clamp recordings, slices were fixed for 1 h in PBS with 4% PFA and streptavidin was applied during secondary incubation. • For mRuby and GFP labelling, primary incubation was performed overnight at 4°C with rabbit anti-RFP (1:500, Rockland Antibody, #600-401-379) and chicken anti-GFP (1:1000, Aves, #GFP-1020) antibodies. […]

excitatory DREADD = biological target: T2, excitatory DREADD (Homo sapiens, UniProt P20309, A239G/Y149C); experiment: c-fos / mCherry overlap in ILA after familiar animal presentation, excitatory DREADD; assay type: in vivo, CRH-Cre mice; details: CNO i.p. 30 min before familiar animal presentation; vs. saline
T2 construct: host or cells: ILA CRH+ neurons of CRH-Cre mice, Cre-dependent AAV2/5 transduction in vivo
T2 sequence (P20309 whole entry Y149C/A239G): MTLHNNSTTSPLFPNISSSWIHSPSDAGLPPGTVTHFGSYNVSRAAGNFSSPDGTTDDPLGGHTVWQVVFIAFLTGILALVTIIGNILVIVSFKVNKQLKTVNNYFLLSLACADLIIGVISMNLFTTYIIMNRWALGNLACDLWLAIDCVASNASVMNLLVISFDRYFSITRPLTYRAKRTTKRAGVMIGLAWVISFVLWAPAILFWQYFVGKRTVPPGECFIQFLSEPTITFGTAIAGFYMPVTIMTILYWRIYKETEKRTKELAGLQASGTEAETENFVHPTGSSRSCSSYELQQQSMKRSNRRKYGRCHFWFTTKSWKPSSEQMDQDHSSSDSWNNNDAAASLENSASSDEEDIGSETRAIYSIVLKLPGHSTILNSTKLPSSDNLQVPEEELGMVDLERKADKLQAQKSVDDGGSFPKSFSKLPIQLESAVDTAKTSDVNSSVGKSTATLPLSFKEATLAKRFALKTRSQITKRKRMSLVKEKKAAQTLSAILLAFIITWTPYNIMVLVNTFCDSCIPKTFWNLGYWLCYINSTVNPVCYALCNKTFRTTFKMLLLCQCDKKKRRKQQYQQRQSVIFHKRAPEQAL
Protocol: as §1

Which “c-fos/mCherry+ cells in ILA” value (inhibitory DREADD) does the source give for `C[N+]1([O-])CCN(C2=Nc3cc(Cl)ccc3Nc3ccccc32)CC1` [CNO, clozapine N-oxide] here?
The value was “less c-fos/mCherry+ cells compared to the saline control”.

What about the “c-fos/mCherry+ overlap in ILA” value (excitatory DREADD) of the same compound?
The value was “increased c-fos/mCherry+ overlap”.

From patent EP4516309A1, “CRHR1 AGONISTS FOR USE IN THE TREATMENT OF SOCIAL ANXIETY DISORDERS” (Consejo Superior de Investigaciones Cientificas, priority 2023, dated 2025)
